Paper PMC9959269, “Pyrrolyl and Indolyl α-γ-Diketo Acid Derivatives Acting as Selective Inhibitors of Human Carbonic Anhydrases IX and XII” (Pharmaceuticals, 2023)
Values joined by “and” are separate entries in the source; they are usually repeats but may differ in a detail not shown here. Identical values can stand only once.

Assays:
hCA II = target: T1, hCA II (Homo sapiens, UniProt P00918); assay: Stopped flow CO2 hydrase assay, hCA II inhibition; format: biochemical; conditions: stopped flow technique; means ± SEM of 3 different assays; recombinant hCA II; read-out: Ki CA II
T1 construct: made in house
Protocol: (§1) An Applied Photophysics stopped-flow instrument has been used for assaying the CA catalyzed CO2 hydration activity. Phenol red (at a concentration of 0.2 mM) has been used as an indicator, working at the absorbance maximum of 557 nm, with 20 mM Hepes (pH 7.5) as buffer and 20 mM Na2SO4 (for maintaining constant the ionic strength), following the initial rates of the CA-catalyzed CO2 hydration reaction for a period of 10−100 s. The CO2 concentrations ranged from 1.7 to 17 mM for the determination of the kinetic parameters and inhibition constants. […] The uncatalyzed rates were determined in the same manner and subtracted from the total observed rates. Stock solutions of inhibitor (0.1 mM) were prepared in distilled−deionized water and dilutions up to 0.01 nM were performed thereafter with the assay buffer. Inhibitor and enzyme solutions were preincubated together for 15 min at room temperature before assay to allow for the formation of the E−I complex. The inhibition constants were obtained by nonlinear least-squares methods using PRISM 3 and the Cheng−Prusoff equation, as reported earlier, and they represent the mean from at least three different determinations. […] All hCA isoforms were recombinant ones obtained in-house as reported earlier.

hCA IX = target: T2, hCA IX (Homo sapiens, UniProt Q16790); assay: Stopped flow CO2 hydrase assay, hCA IX inhibition; format: biochemical; conditions: for Ki: stopped flow technique, means ± SEM of 3 different assays, recombinant hCA IX, read-out: Ki CA IX; for Selectivity for CA IX and XII over hCAs I and II: from Ki values
T2 construct: made in house
Protocol: as §1

hCA I = target: T3, hCA I (Homo sapiens, UniProt P00915); assay: Stopped flow CO2 hydrase assay, hCA I inhibition; format: biochemical; conditions: stopped flow technique, means ± SEM of 3 different assays, recombinant hCA I; for Ki: read-out: Ki CA I
T3 construct: made in house
T3 sequence (P00915 whole entry): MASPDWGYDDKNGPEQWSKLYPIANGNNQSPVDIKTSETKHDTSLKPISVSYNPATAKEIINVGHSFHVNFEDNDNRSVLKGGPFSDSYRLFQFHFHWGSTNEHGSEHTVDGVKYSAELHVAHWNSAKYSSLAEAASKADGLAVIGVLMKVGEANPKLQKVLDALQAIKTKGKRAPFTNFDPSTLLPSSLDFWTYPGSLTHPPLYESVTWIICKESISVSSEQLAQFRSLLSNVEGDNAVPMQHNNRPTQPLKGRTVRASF
Protocol: as §1

hCA XII = target: T4, hCA XII (Homo sapiens, UniProt O43570); assay: Stopped flow CO2 hydrase assay, hCA XII inhibition; format: biochemical; conditions: for Ki: stopped flow technique, means ± SEM of 3 different assays, recombinant hCA XII, read-out: Ki CA XII
T4 construct: made in house
T4 sequence (O43570 25-354): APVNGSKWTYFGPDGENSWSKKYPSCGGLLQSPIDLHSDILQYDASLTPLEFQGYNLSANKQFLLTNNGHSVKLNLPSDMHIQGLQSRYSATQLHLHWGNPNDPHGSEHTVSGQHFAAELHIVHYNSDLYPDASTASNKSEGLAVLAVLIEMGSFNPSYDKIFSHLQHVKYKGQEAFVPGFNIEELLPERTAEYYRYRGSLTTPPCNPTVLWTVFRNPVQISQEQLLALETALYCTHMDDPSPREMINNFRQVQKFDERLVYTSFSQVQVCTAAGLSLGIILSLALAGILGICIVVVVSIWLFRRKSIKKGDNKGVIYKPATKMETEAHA
Protocol: as §1

[1] = tested on: MDA-MB231, HT-29, SCC-15 and FaDu tumor cell lines; assay: In vitro proliferation assay, four tumor cell lines taken together; format: cell-based, human; conditions: for Antiproliferative activity (in words): four tumor cell lines, 5-100 µM, 24 and 48 h; for Lowest concentration determining a significant decrease in alive cells: tumor cell lines, 24 h
Protocol: (§2) The effects of selected compounds were also examined on the proliferation of four cell lines from different human solid tumors overexpressing hCA isoforms IX and XII: triple negative breast cancer MDA-MB231, colon carcinoma HT-29, tongue squamous carcinoma SCC-15 and pharynx squamous carcinoma FaDu. The cell lines were treated with 5, 10, 20, 50, 100 µM of each single compound for 24 and 48 h. In parallel, the proliferation assay was performed also on HaCaT, a human non-transformed keratinocyte cell line, with each compound used at the same concentrations and times already indicated. The median values from three different proliferation assays for each compound and for each cell line were calculated and their significance was evaluated.
(§3) The following human tumor cell lines were utilized in the present study: triple-negative breast cancer MDA-MB231, colon carcinoma HT-29, tongue squamous cell carcinoma SCC-15 and pharynx squamous cell carcinoma FaDu. In addition, a spontaneously transformed keratinocyte cell line from human skin HaCaT was used as control of non-transformed cells. All cell lines were purchased from the American Type Culture Collection (Manassas, VA, USA).
(§4) The cell lines were grown in RPMI 1640 medium supplemented with 10% fetal calf serum (FCS), 2 mM glutamine and 50 U/mL penicillin–streptomycin.
(§5) All compounds were solubilized in dimethylsulfoxide (DMSO) (Sigma) for a 10 mM stock solution and utilized to final concentrations from 5 to 100 μM for 24 and 48 h. Control cells were treated with equivalent amounts of DMSO in every experiment.
(§6) To determine cytotoxicity, a sulforhodamine B colorimetric assay was performed: 5 × 10^3 cells were plated on 96-well plates, grown for 24 h and treated with different concentrations of each compound for 24 and 48 h. Cells were then fixed with 50% trichloroacetic acid for 1 h at 4 °C and stained for 30 min (min) at room temperature (RT) with 0.4% sulforhodamine B in 1% acetic acid. Excess dye was removed by washing four times with 1% acetic acid. Protein-bound dye was dissolved in 10 mM Tris pH 10 and optical density was determined at 510 nm using a microplate reader.

[2] = tested on: pharynx squamous carcinoma FaDu; assay: In vitro proliferation assay (sulforhodamine B), FaDu; format: cell-based; conditions: Homo sapiens, ± SD
Protocol: as §2, §3, §4, §5, §6

colon carcinoma HT-29 = assay: In vitro proliferation assay (sulforhodamine B), HT-29; format: cell-based; conditions: Homo sapiens, ± SD
Protocol: as §2, §3, §4, §5, §6

[3] = tested on: triple negative breast cancer MDA-MB231; assay: In vitro proliferation assay (sulforhodamine B), MDA-MB231; format: cell-based; conditions: Homo sapiens, MDA-MB-231, ± SD
Protocol: as §2, §3, §4, §5, §6

[4] = tested on: tongue squamous carcinoma SCC-15; assay: In vitro proliferation assay (sulforhodamine B), SCC-15; format: cell-based; conditions: Homo sapiens, ± SD
Protocol: as §2, §3, §4, §5, §6

HaCaT = assay: In vitro proliferation assay (sulforhodamine B), HaCaT non-transformed keratinocytes; format: cell-based, human; conditions: 24 and 48 h, no effect except at a very high concentration, above 100 µM
Protocol: as §2
The following human tumor cell lines were utilized in the present study: triple-negative breast cancer MDA-MB231, colon carcinoma HT-29, tongue squamous cell carcinoma SCC-15 and pharynx squamous cell carcinoma FaDu. […]
To determine cytotoxicity, a sulforhodamine B colorimetric assay was performed: 5 × 10^3 cells were plated on 96-well plates, grown for 24 h and treated with different concentrations of each compound for 24 and 48 h. […] Protein-bound dye was dissolved in 10 mM Tris pH 10 and optical density was determined at 510 nm using a microplate reader.

SMILES | Ki (hCA II) [µM] | Ki (hCA IX) | Ki (hCA I) [µM] | Ki (hCA XII) | Antiproliferative activity (in words) [1] | EC50 ([2]; 24 h treatment) [µM] | EC50 ([2]; 48 h treatment) [µM] | EC50 (colon carcinoma HT-29; 24 h treatment) [µM] | EC50 (colon carcinoma HT-29; 48 h treatment) [µM] | EC50 ([3]; 24 h treatment) [µM] | EC50 ([3]; 48 h treatment) [µM] | Selectivity for CA IX and XII over hCAs I and II (hCA IX) | EC50 ([4]; 24 h treatment) [µM] | EC50 ([4]; 48 h treatment) [µM] | Ki CA I (hCA I) | Increase in activity against CA IX relative to diketobutanoic analogue 3a (hCA IX; ratio of Ki values, 5 vs 3a) | Increase in activity against CA XII relative to diketobutanoic analogue 3a (hCA XII; ratio of Ki values, 5 vs 3a) | Effect on proliferation of HaCaT cells (HaCaT) | Lowest concentration determining a significant decrease in alive cells [1] [µM]
O=C(/C=C(\O)C(=O)O)/C=C/c1cccn1Cc1ccc(F)cc1 [Compound 1a] | 14.6 ± 0.9 | 2 ± 0.1 µM | 81.9 ± 6 | 1 ± 0.1 µM | – | – | – | – | – | – | – | – | – | – | – | – | – | – | –
O=C(/C=C(\O)C(=O)O)/C=C/c1cccn1Cc1ccccc1F [Compound 1b] | 14 ± 0.8 | 2.5 ± 0.1 µM | 89.6 ± 4.8 | 2.2 ± 0.1 µM | low efficacy | 98 ± 8.6 | 90 ± 9.3 | 92 ± 9.9 | 75 ± 8.2 | – | – | – | – | – | – | – | – | – | –
Cc1ccc(Cn2cccc2/C=C/C(=O)/C=C(\O)C(=O)O)cc1 [Compound 1c] | 44.4 ± 2.6 | 0.8 µM and 0.82 µM | 79 ± 3.9 | 0.9 ± 0.07 µM | significant antiproliferative activity | 59 ± 4.5 | 17 ± 0.9 | 115 ± 10.8 | 48 ± 4.1 | 85 ± 9.1 | 73 ± 5.5 | two orders of magnitude selective | 96 ± 8.5 | 53 ± 5.9 | – | – | – | – | –
O=C(/C=C(\O)C(=O)O)/C=C/c1cc(C(=O)c2ccccc2)c[nH]1 [Compound 1d] | 38.7 ± 2 | 1.4 ± 0.1 µM | 72.5 ± 5.1 | 1.1 ± 0.1 µM | – | – | – | – | – | – | – | – | – | – | – | – | – | – | –
CCOC(=O)/C(O)=C/C(=O)/C=C/c1cccn1Cc1ccc(F)cc1 [Compound 2a] | > 100 | 90.1 ± 4.7 µM | > 100 | 83.6 ± 5.4 µM | – | – | – | – | – | – | – | – | – | – | – | – | – | – | –
CCOC(=O)/C(O)=C/C(=O)/C=C/c1cccn1Cc1ccccc1F [Compound 2b] | > 100 | 23.7 ± 1.6 µM | > 100 | 80.5 ± 6.1 µM | – | – | – | – | – | – | – | – | – | – | – | – | – | – | –
CCOC(=O)/C(O)=C/C(=O)/C=C/c1cccn1Cc1ccc(C)cc1 [Compound 2c] | > 100 | 90.8 ± 4.6 µM | > 100 | 89.3 ± 5.3 µM | – | – | – | – | – | – | – | – | – | – | – | – | – | – | –
O=C(O)/C(O)=C/C(=O)c1cn(Cc2ccc(F)cc2)cc1-c1ccccc1 [Compound 3a] | 77.6 ± 4.5 | 1.4 ± 0.1 µM | > 100 | 0.3 µM and 0.33 µM | – | – | – | – | – | – | – | – | – | – | inactive | – | – | – | –
O=C(O)/C(O)=C/C(=O)c1ccn(Cc2ccc(F)cc2)c1 [Compound 3b] | 54.7 ± 2.9 | 18.4 ± 1.2 µM | 50.9 ± 4.1 | 7.9 ± 0.6 µM | – | – | – | – | – | – | – | – | – | – | – | – | – | – | –
CCOC(=O)/C(O)=C/C(=O)c1cn(Cc2ccc(F)cc2)cc1-c1ccccc1 [Compound 4a] | > 100 | 57.3 ± 2.8 µM | > 100 | 89.2 ± 5.2 µM | – | – | – | – | – | – | – | – | – | – | – | – | – | – | –
CCOC(=O)/C(O)=C/C(=O)c1ccn(Cc2ccc(F)cc2)c1 [Compound 4b] | > 100 | > 100 µM | > 100 | 71.5 ± 4.3 µM | – | – | – | – | – | – | – | – | – | – | – | – | – | – | –
O=C(/C=C(\O)C(=O)O)/C=C/c1cn(Cc2ccc(F)cc2)cc1-c1ccccc1 [Compound 5] | 62.5 ± 3.6 | 0.3 µM and 0.32 µM | > 100 | 0.2 µM and 0.24 µM | significant antiproliferative activity | 103 ± 11.4 | 23 ± 2.8 | 98 ± 11 | 21 ± 1.6 | 120 ± 15.7 | 105 ± 13.2 | two orders of magnitude selective | 102 ± 9.7 | 58 ± 6.2 | inactive | more than 4 times | about 1.5 times | – | –
CCOC(=O)/C(O)=C/C(=O)/C=C/c1cn(Cc2ccc(F)cc2)cc1-c1ccccc1 [Compound 6] | > 100 | 43.1 ± 2.5 µM | > 100 | 89 ± 6.1 µM | – | – | – | – | – | – | – | – | – | – | – | – | – | – | –
COc1ccc(Cn2cc(/C=C/C(=O)/C=C(\O)C(=O)O)c3ccccc32)cc1 [Compound 7] | 36.5 ± 1.9 | 1.1 ± 0.1 µM | 91.7 ± 7.5 | 0.8 µM and 0.83 µM | – | 51 ± 4.7 | 22 ± 1.2 | 47 ± 5 | 30 ± 2.8 | 21 ± 1.8 | 12 ± 1.1 | – | 48 ± 3.9 | 17 ± 0.8 | – | – | – | no significant effect | 10
CCOC(=O)/C(O)=C/C(=O)/C=C/c1cn(Cc2ccc(OC)cc2)c2ccccc12 [Compound 8] | > 100 | 80.1 ± 5.3 µM | > 100 | 92 ± 6 µM | – | 41 ± 3.3 | 18 ± 0.7 | 75 ± 8.8 | 44 ± 2.3 | 23 ± 1.6 | 17 ± 0.9 | – | 44 ± 4.1 | 21 ± 1.9 | – | – | – | no significant effect | 10
